Entries after “also recorded” stand apart in the source; their conditions may differ.
Assays:
[1] = test system: ANBL-6 multiple myeloma cells; experiment: CellTiter-Glo cell viability assay, ANBL-6; assay type: cell-based
[2] = test system: JJN-3 multiple myeloma cells; assay type: cell-based, human; conditions: JJN-3, 10 μM
From the text: Minor effects on the proliferation of the IH-1 and RPMI 8226 cell lines are seen. […] The number of viable cells was detected based on quantitation of ATP by luminescent signal in correlation to a standard curve prepared for each cell line. Results are based on 3-5 biological replicates for each condition, error bars show standard deviation of mean.
Multiple myeloma cells JJN-3 (DSMZ (Germany) no. ACC 541), ANBL-6 (Cellosaurus accession number CVCL_5425, obtained from Dr Diane Jelinek, Mayo Clinic, Rochester, Minn.), INA-6 (Cellosaurus accession number CVCL_5209, obtained from Dr M. Gramatzki, University of Erlangen-Nurnberg, Erlangen, Germany), RPMI-8226 (ATCC CCL-155), and IH-1 (Cellosaurus accession number CVCL_WZ44, established from the pleural effusion of a myeloma patient by Myeloma research group, IKOM, NTNU, Trondheim, Norway) were grown in RPMI-1640 (Sigma-Aldrich Norway, Oslo, Norway) supplemented with 100 nM penicillin/streptomycin and 10% FCS, and for ANBL-6, IH-1 and INA-6 cells 2 ng/ml recombinant IL-6 (Gibco, Thermo Fisher Scientific, Waltham, Mass., USA). Murine multiple myeloma Vk*MYC cells were obtained from M.D. Leif Bergsagel (Mayo Clinic, Richester, Minn., USA) and cultured in RPMI-1640 supplemented with 2% human serum (B^+, The blood bank, St Olav's Hospital, Trondheim, Norway), 100 nM penicillin/streptomycin, L-Glutamine (2 mM) and recombinant IL-6 (1 ng/ml). HEK293T (ATCC CRL-3216) were cultured in DMEM with 10% FCS. THP-1 TRAM knockout (KO) and TLR4 KO cell lines, and matching lentivirally transduced control cell lines, were differentiated in the same way as wild type (WT) THP-1. TRAM KO THP-1 cell line is described in Yurchenko et al. (supra).
To evaluate the potential impact of the P7 peptide on proliferation of tumour cells of lymphoid origin, we performed a CellTiter-Glo Luminescent Cell Viability Assay to address proliferation of several multiple myeloma (MM) cell lines. […]

Jurkat cells = experiment: Proliferation of Jurkat T cell leukaemia cells; assay type: cell-based, human; conditions: 15 μM or 20 μM, 48 h
Description: Jurkat cells were seeded at 5000 cells/well (as indicated by dotted line) and incubated in medium supplemented with water, penetratin, P7-Pen or P7-N4-Pen. Peptides were included at 15 μM (A) or 20 μM (B). Cells were incubated for 48 hours then counted. […] Results are based on 3 biological replicates, error bars show standard deviation of mean.
SW480 (ATCC CCL-228) and Jurkat (ATCC Clone E6-1; TIB-152) cells were cultured in RPMI 1640 (Sigma-Aldrich, Schnelldorf, Germany) supplemented with 10% heat-inactivated FCS, penicillin/streptomycin (Life Technologies) and 20 mM L-Glutamine. THP-1 cells (ATCC TIB-202) were cultured in RPMI-1640 (high-glucose, ATCC) supplemented with 10% heat inactivated foetal calf serum (FCS), 100 nM penicillin/streptomycin and 5 μM β-mercaptoethanol (Sigma). THP-1 cells were differentiated with 60 ng/ml phorbol 12-myristate 13-acetate (PMA, Sigma) for 72 h, followed by 24 or 48 h in medium without PMA.
The peptides were tested against the SW480 cell line in the presence and absence of LPS.

| Substance | combination effect with melphalan at low melphalan concentrations ([1]; ANBL-6, 5 μM peptide) | cytotoxic effect of combination with melphalan relative to peptide or melphalan alone ([1]; ANBL-6, 5 μM peptide plus melphalan 8-20 μM, 48 h) | cell proliferation ([2]; 48 h) | cell death ([2]; 48 h (LDH assay not shown)) | effect on proliferation of Jurkat cells (Jurkat cells) |
| --- | --- | --- | --- | --- | --- |
| Ac-ITVAASVTLTGRQIKIWFQNRRMKWKK-NH2 [Peptide P7-A4-Pen] | synergistic effect | much-enhanced cytotoxic effect | strongly inhibited cell proliferation | induced cell death |  |
| Ac-ITVYASVTLTGRQIKIWFQNRRMKWKK-NH2 [Peptide P7-Pen] |  |  |  |  | possible anti-proliferative effect; also recorded: clear anti-proliferative effect |
